Laboratory results reported in article PMC11173897, “Computational Docking as a Tool in Guiding the Drug Design of Rutaecarpine Derivatives as Potential SARS-CoV-2 Inhibitors” (Molecules, 2024).

How the values were obtained:
[1] = target: T1, SARS-CoV-2 3CL protease (Severe acute respiratory syndrome coronavirus 2, UniProt P0DTD1); assay: 3CL protease assay (SensoLyte fluorogenic kit); format: biochemical; details: n = 4
[2] = target: T2, S-protein–ACE2 complex (Severe acute respiratory syndrome coronavirus 2, UniProt P0DTC2); assay: S-protein-based ELISA (spike–ACE2 binding assay kit); design: species or system SARS-CoV-2; details: for IC50: tested at 0.1, 1, 5, 10, 20 µM, n = 4, read-out: IC50, disrupting the S-protein–ACE2 complex; for maximal inhibition, higher than that of RU: S-protein-based ELISA, compared with RU
T2 construct: purchased ImmunoDiagnostics Ltd., Hong Kong, China
Text: An S-protein-based ELISA was utilized to determine the binding activities of RU-75 and RU-184 to the S-protein–ACE2 complex. A standard inhibitor, provided by the supplier (calibrated to NIBSC code 20/136), was employed as a positive control (Figure 6A). […] The maximal inhibition, triggered by RU-75 and RU-184, was at least 20% higher than that of RU.
(A) A standard inhibitor, provided by supplier (calibrated to NIBSC code 20/136), was used as a positive control. (B) Rutaecarpine, RU-75 and RU-184 were detected at concentrations of 0.1, 1, 5, 10, 20 µM. The IC50 values are shown.
Spike (S)-protein inhibition was analyzed with the SARS-CoV-2 spike–ACE2 binding assay kit (ImmunoDiagnostics Ltd., Hong Kong, China), according to the manufacturer’s instructions. The reaction was terminated by the addition of 2 M H2SO4, and the data were quantified using a microplate reader (FlexStation; Molecular Devices, San Jose, CA). The percentage of inhibition was calculated as follows:
Percentage of inhibition = (PAvg − SAvg)/PAvg × 100%, where PAvg and SAvg are the mean OD values of the positive control and test sample, respectively.

[3] = target: T1, SARS-CoV-2 3CL protease; details: cited from earlier work
[4] = system: TNF-α, IL-6 and IL-1β mRNA in RAW264.7 cells; details: previous investigation; cited from earlier work
[5] = system: wild-type SARS-CoV-2 pseudovirus; details: cited from earlier work
[6] = system: cells; details: MTT assay, Figure S1
[7] = target: T2, S-protein–ACE2 complex; details: cited from earlier work
[8] = system: TNF-α, IL-6 and IL-1β mRNA in RAW264.7 cells; format: cell-based; details: co-treated with LPS 0.1 µg/mL, 24 h, Figure S2
[9] = system: TNF-α, IL-6 and IL-1β mRNA in RAW264.7 cells; format: cell-based

Compound	IC50 [1]	IC50 [2]	3CL protease inhibition [3]	inflammatory response induced by SARS-CoV-2 [4]	entry of SARS-CoV-2 into host cells [5]	cell toxicity (cell viability) [6]	formation of the S-protein–ACE2 complex [7]	maximal inhibition, higher than that of RU [2]	inflammatory suppression [8]	production of inflammatory cytokines (TNF-α, IL-6 and IL-1β) [9]
O=c1c2ccccc2nc2n1CCc1c-2[nH]c2ccccc12 [RU, rutaecarpine]	1.6 µM	1.26 µM	inhibit the 3CL protease	attenuated the inflammatory response	prevented the entry of SARS-CoV-2 into host cells	little impact on the cell viability	inhibited the formation of the S-protein–ACE2 complex	–	–	–
O=c1c2ccc(Nc3ccccc3)cc2nc2n1CCc1c-2[nH]c2ccccc12 [RU-75]	1.31 µM	1.03 µM	–	–	–	little impact on the cell viability	–	at least 20%	no significant inflammatory suppression	significantly reduced
O=C1c2ccc(Nc3ccccc3)cc2NC2=NCCc3c2n1c1ccccc31 [RU-184]	1.03 µM	0.78 µM	–	–	–	little impact on the cell viability	–	at least 20%	no significant inflammatory suppression	significantly reduced
